# Measured values taken from patent US8906852B2 (MethylGene Inc., priority 2010, dated 2014).
# Target: T1, VEGFR/KDR (Homo sapiens, UniProt P35968)
# T1 construct: made in house; host or cells: Sf9 cells (Spodoptera frugiperda), baculovirus
# Experiment: VEGFR/KDR kinase inhibition, DELFIA assay
# Type: biochemical
# Settings: ATP 0.6 uM (2x Km), enzyme 5 nM
# Summary of the method: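 Enzyme (5 nM) pre-incubated 4 min on ice with inhibitor and Mg-ATP (0.6 uM, 2× Km), then reacted 10-30 min at 30° C on immobilized poly(Glu4,Tyr). EDTA-quenched phosphotyrosine detected with Europium-labeled antibody by time-resolved fluorescence; IC50 from concentration series.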
# T1 sequence (P35968 806-1356): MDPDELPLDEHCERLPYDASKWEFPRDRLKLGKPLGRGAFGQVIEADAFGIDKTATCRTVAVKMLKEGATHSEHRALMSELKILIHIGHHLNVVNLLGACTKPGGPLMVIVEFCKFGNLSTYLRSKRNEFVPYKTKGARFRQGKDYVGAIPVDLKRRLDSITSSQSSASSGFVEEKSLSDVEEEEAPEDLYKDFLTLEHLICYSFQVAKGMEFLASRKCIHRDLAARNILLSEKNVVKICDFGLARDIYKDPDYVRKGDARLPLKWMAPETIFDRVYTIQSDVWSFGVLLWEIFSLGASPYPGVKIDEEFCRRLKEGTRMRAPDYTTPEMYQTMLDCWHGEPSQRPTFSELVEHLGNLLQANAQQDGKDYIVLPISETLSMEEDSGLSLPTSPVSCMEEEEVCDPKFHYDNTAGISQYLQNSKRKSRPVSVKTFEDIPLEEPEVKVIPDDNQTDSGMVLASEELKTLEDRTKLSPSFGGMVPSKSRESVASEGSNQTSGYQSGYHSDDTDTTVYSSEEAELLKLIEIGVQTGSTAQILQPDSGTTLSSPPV
row,IC50,SMILES
1,< 50 nM,"CS(=O)(=O)N1CC=C(c2cc3nccc(Oc4ccc(NC(=O)NC5CC5)cc4F)c3s2)CC1 [Compound 275, 1-cyclopropyl-3-(3-fluoro-4-(2-(1-(methylsulfonyl)-1,2,3,6-tetrahydropyridin-4-yl)thieno[3,2-b]pyridin-7-yloxy)phenyl)urea]"
2,< 50 nM,"O=C(Nc1ccc(Oc2ccnc3cc(-c4ccc(CN5CCC(F)(F)C5)cn4)sc23)c(F)c1)NC1CC1 [Compound 315, 1-cyclopropyl-3-(4-(2-(5-((3,3-difluoropyrrolidin-1-yl)methyl)pyridin-2-yl)thieno[3,2-b]pyridin-7-yloxy)-3-fluorophenyl)urea]"
3,< 50 nM,CC(C)(C)OC(=O)N1CCN(C(=O)Cn2cc(-c3cc4nccc(Oc5ccc(NC(=O)NC6CC6)cc5F)c4s3)nn2)CC1 [Compound 388]
4,< 50 nM,"CC(=O)N(Cc1ccc(-c2cc3nccc(Oc4ccc(NC(=O)NC5CC5)cc4F)c3s2)nc1)C1CCNCC1 [Compound 609, N-((6-(7-(4-(3-Cyclopropylureido)-2-fluorophenoxy)thieno[3,2-b]pyridin-2-yl)pyridin-3-yl)methyl)-N-(piperidin-4-yl)acetamide]"
5,< 50 nM,COCCNCCn1cnc(-c2cc3nccc(Oc4ccc(NC(=O)NC5CC5)cc4F)c3s2)c1 [compound 253]
6,< 50 nM,O=C(Nc1ccc(Oc2ccnc3cc(-c4cn(CCCN5CCOCC5)nn4)sc23)c(F)c1)NC1CC1 [Compound 385]
7,< 50 nM,"CN(CC(=O)O)C1CCN(Cc2ccc(-c3cc4nccc(Oc5ccc(NC(=O)NC6CC6)cc5F)c4s3)nc2)CC1 [Compound 423, 2-((1-((6-(7-(4-(3-Cyclopropylureido)-2-fluorophenoxy)thieno[3,2-b]pyridin-2-yl)pyridin-3-yl)methyl)piperidin-4-yl)(methyl)amino)acetic acid]"
8,< 50 nM,"CS(=O)(=O)N1CCN(Cc2ccc(-c3cc4nccc(Oc5ccc(NC(=O)NC6CC6)cc5F)c4s3)nc2)CC1 [Compound 54-F, 1-cyclopropyl-3-(3-fluoro-4-(2-(5-((4-(methylsulfonyl)piperazin-l-yl)methyl)pyridin-2-yl)thieno[3,2-b]pyridin-7-yloxy)phenyl)urea]"
9,< 50 nM,"CC(=O)OCC(=O)N1CCN(Cc2ccc(-c3cc4nccc(Oc5ccc(NC(=O)NC6CC6)cc5F)c4s3)nc2)CC1 [Compound 310, 2-(4-((6-(7-(4-(3-cyclopropylureido)-2-fluorophenoxy)thieno[3,2-b]pyridin-2-yl)pyridin-3-yl)methyl)piperazin-1-yl)-2-oxoethyl acetate]"
10,< 50 nM,"NC(=O)CCN1CCN(Cc2ccc(-c3cc4nccc(Oc5ccc(NC(=O)NC6CC6)cc5F)c4s3)nc2)CC1 [Compound 82, 3-(4-((6-(7-(4-(3-cyclopropylureido)-2-fIuorophenoxy)-thieno[3,2-b]pyridin-2-yl)pyridin-3-yl)methyl)piperazin-l-yl)propanamide]"
11,< 50 nM,C[C@H](CN1CCN(Cc2ccc(-c3cc4nccc(Oc5ccc(NC(=O)NC6CC6)cc5F)c4s3)nc2)CC1)C(=O)O [Compound 574]
12,< 50 nM,CC(=O)NC1CCN(Cc2ccc(-c3cc4nccc(Oc5ccc(NC(=O)NC6CC6)cc5F)c4s3)nc2)CC1 [Compound 344]
13,50 to 100 nM,CCOC(=O)C1CCN(C(=O)c2cc3nccc(Oc4ccc(NC(=O)NC5CC5)cc4F)c3s2)CC1 [Compound 457]
14,< 50 nM,CC(C)(C)OC(=O)NC1CCN(C(=O)Cn2cc(-c3cc4nccc(Oc5ccc(NC(=O)NC6CC6)cc5F)c4s3)nn2)C1 (stereo not drawn) [Compound 382]

# Continued, compound first:
row,SMILES,IC50
1,"CCOC(Nc1ccc(Oc2ccnc3cc(-c4ccc(CNCCOC)cn4)sc23)c(F)c1)C(F)(F)F (stereo not drawn) [Compound 14, N-(1-ethoxy-2,2,2-trifluoroethyl)-3-fluoro-4-(2-(5-((2-methoxyethylamino)-methyl)pyridin-2-yl)thieno[3,2-b]pyridin-7-yloxy)aniline]",≥ 250 nM
2,COCCN(C)C1CCN(Cc2ccc(-c3cc4nccc(Oc5ccc(NC(=O)NC6CC6)cc5F)c4s3)nc2)CC1 [Compound 416],< 50 nM
3,O=C(O)CC[C@@H](O)C(=O)N1CCN(Cc2ccc(-c3cc4nccc(Oc5ccc(NC(=O)NC6CC6)cc5F)c4s3)nc2)CC1 [Compound 546],< 50 nM
4,"CC(C)[C@H](N)C(=O)OCCN1CCN(Cc2ccc(-c3cc4nccc(Oc5ccc(NC(=O)NC6CC6)cc5F)c4s3)nc2)CC1 [Compound 79, (S)-2-(4-((6-(7-(4-(3-cyclopropylureido)-2-fluorophenoxy)thieno[3,2-b]pyridin-2-yl)pyridin-3-yl)methyl)piperazin-1-yl)ethyl 2-amino-3-methylbutanoate]",< 50 nM
5,"CCNC(=O)N(CCOC)Cc1ccc(-c2cc3nccc(Oc4ccc(NC(=O)NC5CC5)cc4F)c3s2)cc1 [Compound 195, 1-(4-(7-(4-cyclopropylaminocarbonylamino-2-fluorophenoxy)thieno[3,2-b]pyridin-2-yl)benzyl)-3-ethyl-1-(2-methoxyethyl)urea]",< 50 nM
6,"COCCN(Cc1ccc(-c2cc3nccc(Oc4ccc(NC(=O)NC5CC5)cc4F)c3s2)nc1)C(=O)CNC(=O)[C@@H](N)C(C)C [Compound 92, (S)-2-amino-N-(2-(((6-(7-(4-(3-cyclopropylureido)-2-fluorophenoxy)thieno[3,2-b]pyridin-2-yl)pyridin-3-yl)methyl)(2-methoxyethyl)amino)-2-oxoethyl)-3-methylbutanamide]",< 50 nM
7,CN(CCO)C(=O)C1CCN(Cc2ccc(-c3cc4nccc(Oc5ccc(NC(=O)NC6CC6)cc5F)c4s3)nc2)CC1 [Compound 484],< 50 nM
8,"O=C(Nc1ccc(Oc2ccnc3cc(-c4ccc(CN5CCCC5=O)cn4)sc23)c(F)c1F)NC1CC1 [Compound 169, 1-cyclopropyl-3-(2,3-difluoro-4-(2-(5-((2-oxopyrrolidin-1-yl)methyl)pyridin-2-yl)thieno[3,2-b]pyridin-7-yloxy)phenyl)urea]",< 50 nM
9,COCCN(Cc1ccc(-c2cc3nccc(Oc4ccc(NC(CC(=O)Nc5ccc(F)cc5)C(F)(F)F)cc4F)c3s2)nc1)C(C)=O (stereo not drawn) [Compound 39],< 50 nM
10,"O=C(Nc1ccc(Oc2ccnc3cc(-c4ccc(CNc5cc[nH]n5)cn4)sc23)c(F)c1)NC1CC1 [Compound 332, 1-(4-(2-(5-((1H-Pyrazol-3-ylamino)methyl)pyridin-2-yl)thieno[3,2-b]pyridin-7-yloxy)-3-fluorophenyl)-3-cyclopropylurea]",< 50 nM
11,"CCCCOC(=O)C1CN(C(=O)c2ccc(-c3cc4nccc(Oc5ccc(NC(=O)NC6CC6)cc5F)c4s3)nc2)CCO1 (stereo not drawn) [Compound 238, butyl 4-(6-(7-(4-(3-cyclopropylureido)-2-fluorophenoxy)thieno[3,2-b]pyridin-2-yl)nicotinoyl)morpholine-2-carboxylate]",< 50 nM
12,"COCCN(CCn1cc(-c2cc3nccc(Oc4ccc(NC(=O)NC5CC5)cc4F)c3s2)cn1)C(=O)CO [Compound 257, N-(2-(4-(7-(4-(3-cyclopropylureido)-2-fluorophenoxy)thieno[3,2-b]-pyridin-2-yl)-1H-pyrazol-1-yl)ethyl)-2-hydroxy-N-(2-methoxyethyl)acetamide]",< 50 nM
13,"CN1CCN(C(=O)C2CCCN(Cc3ccc(-c4cc5nccc(Oc6ccc(NC(=O)NC7CC7)cc6F)c5s4)nc3)C2)CC1 (stereo not drawn) [Compound 493, 1-cyclopropyl-3-(3-fluoro-4-(2-(5-((3-(4-methylpiperazine-1-carbonyl)piperidin-1-yl)methyl)pyridin-2-yl)thieno[3,2-b]pyridin-7-yloxy)phenyl)urea]",< 50 nM
14,"CCNC(=O)N(CCOC)Cc1ccc(-c2cc3nccc(Oc4ccc(NC(=O)NC5CC5)c(F)c4F)c3s2)nc1 [Compound 35, N-[3-((6-(7-(4-(3-cyclopropylureido)-2,3-difluorophenoxy)thieno[3,2-b]pyridin-2-yl)pyridin-3-yl)methyl)]-N-(1-ethyl)-N-(2-methoxyethyl)urea]",< 50 nM
15,O=C(O)CCCCCCC(=O)N1CCN(Cc2ccc(-c3cc4nccc(Oc5ccc(NC(=O)NC6CC6)cc5F)c4s3)nc2)CC1 [Compound 544],< 50 nM
16,"O=C(O)CNC(=O)NC1CCN(Cc2ccc(-c3cc4nccc(Oc5ccc(NC(=O)NC6CC6)cc5F)c4s3)nc2)CC1 [Compound 426, 2-(3-(1-((6-(7-(4-(3-Cyclopropylureido)-2-fluorophenoxy)thieno[3,2-b]pyridin-2-yl)pyridin-3-yl)methyl)piperidin-4-yl)ureido)acetic acid]",< 50 nM
17,CCCNC(=O)NC1CCN(Cc2ccc(-c3cc4nccc(Oc5ccc(NC(=O)NC6CC6)cc5F)c4s3)nc2)CC1 [Compound 354],< 50 nM
18,CN1CCC(C(=O)N2CCN(Cc3ccc(-c4cc5nccc(Oc6ccc(NC(=O)NC7CC7)cc6F)c5s4)nc3)CC2)CC1 [Compound 539],< 50 nM
19,"Cc1cc(NCc2ccc(-c3cc4nccc(Oc5ccc(NC(=O)NC6CC6)cc5F)c4s3)nc2)nn1C [Compound 335, 1-cyclopropyl-3-(4-(2-(5-((1,5-dimethyl-1H-pyrazol-3-ylamino)methyl)pyridin-2-yl)thieno[3,2-b]pyridin-7-yloxy)-3-fluorophenyl)urea]",< 50 nM
20,"CN1CCC(CN2CCN(Cc3ccc(-c4cc5nccc(Oc6ccc(NC(=O)NC7CC7)cc6F)c5s4)nc3)CC2)CC1 [Compound 54-D, 1-cyclopropyl-3-(3-fluoro-4-(2-(5-((4-((1-methylpiperidin-4-yl)methyl)piperazin-1-yl)methyl)pyridin-2-yl)thieno[3,2-b]pyridin-7-yloxy)phenyl)urea]",< 50 nM
21,O=C(Nc1ccc(Oc2ccnc3cc(-c4ccc(CN5CCN(C(=O)[C@H]6CCC(=O)O6)CC5)cn4)sc23)c(F)c1)NC1CC1 [Compound 543],< 50 nM
22,"CCNC(=O)N(CCOC)CCc1ccc(-c2cc3nccc(Oc4ccc(NC(=O)NC5CC5)cc4F)c3s2)nc1 [Compound 38, N-[3-(2-(6-(7-(4-(3-cyclopropylureido)-2-fluorophenoxy)-thieno[3,2-b]-pyridin-2-yl)pyridin-3-yl)ethyl)]-N-(1-ethyl)-N-[3-(2-methoxyethyl)]urea]",< 50 nM
